The species entered for experiment [1] is Homo sapiens. The experiment is described as follows: Binding affinity to 14C3 DNA triplex assessed as melting temperature change from duplex to single strand DNA forms by UV absorption spectrometry.
The species entered for experiment [2] is Homo sapiens. The experiment in a line: Binding affinity to 14C3 DNA triplex assessed as melting temperature change from triplex to duplex DNA forms by UV absorption spectrometry.
Experiment [3] is filed under the species Homo sapiens. The experiment in a line: Binding affinity to 14C3 DNA triplex assessed as melting temperature for transition from duplex to single strand DNA forms by UV absorption spectrometry.
The species named for experiment [4] is Homo sapiens. The experiment is described as follows: Binding affinity to 14C3 DNA triplex assessed as melting temperature for transition from triplex to duplex DNA forms by UV absorption spectrometry.
Experiment [5] is filed under the species Homo sapiens. The experiment is described as follows: Binding affinity to 14C3 DNA triplex assessed as stabilization of triplex DNA form.

Activity calls are given as the source filed them. The rule behind the calls is not given here.

Regarding `CN(CCCN)c1cc2c(cc1F)C(=O)c1nc3ccccc3c(=O)n1-2`, the ΔTm (usually the shift of the melting midpoint relative to a reference) worked out at 2.8 °C in experiment [1] and 24.8 °C in experiment [2]. Further, the midpoint of thermal melting (Tm) – broadly, the temperature at which the thermal transition is half complete – in experiment [3] was 61.8 °C; in experiment [4], 45.3 °C.
As for `COc1ccc2c(ccc3c2[nH]c2c(C)cnc(NCCCN(C)CCCN)c23)c1`, the result in experiment [5] was Active.
Turning to `COc1ccc2c(ccc3[nH]c4c(C)cnc(NCCCN)c4c32)c1`, in experiment [5], the outcome was Active.
As for `NCCCNc1cc2c(cc1F)C(=O)c1nc3ccccc3c(=O)n1-2`, the ΔTm in experiment [1] was 4.8 °C; in experiment [2], 19.3 °C. Besides, the Tm in experiment [3] was determined as 63.8 °C; in experiment [4], 39.8 °C.
With `CN(CCCN)c1ccc2c(c1)-n1c(nc3ccccc3c1=O)C2=O`, the values for the ΔTm in experiment [1] and in experiment [2] were 3.3 °C and 18.8 °C, respectively. Further, the figures for the Tm in experiment [3] and in experiment [4] were 62.3 °C and 39.3 °C, respectively.
For the compound `NCCCNc1ccc2c(c1)-n1c(nc3ccccc3c1=O)C2=O`, the ΔTm is 5.7 °C in experiment [1] and 13 °C in experiment [2]. Further, the Tm is 64.7 °C in experiment [3] and 33.5 °C in experiment [4].

Values taken from ChEMBL document CHEMBL1139106, “Specific stabilization of DNA triple helices by indolo[2,1-b]quinazolin-6,12-dione derivatives” (Bioorg Med Chem Lett, 2007).
